Measurements as given in the kinase profiling compilation of Christmann-Franck et al. (2016).

Key:
Assay in all cases: KINOMEscan competition binding
[1] = system: FLT3 (human), P36888 [ITD]; conditions: compound 1.0 µM
[2] = molecular target: STK16 (human) (UniProt O75716)
[3] = molecular target: MAP2K5 (human) (UniProt Q13163)
[4] = molecular target: PDGFRB (human) (UniProt P09619)
[5] = molecular target: CDK4 CCND3 (human) (UniProt P11802+P30281); conditions: compound 1.0 µM
[6] = system: CPK1 (P.falciparum); conditions: compound 1.0 µM
[7] = molecular target: MAP3K1 (human) (UniProt Q13233)
Chain of MAP3K1 (human) (Q13233 whole entry, looked up): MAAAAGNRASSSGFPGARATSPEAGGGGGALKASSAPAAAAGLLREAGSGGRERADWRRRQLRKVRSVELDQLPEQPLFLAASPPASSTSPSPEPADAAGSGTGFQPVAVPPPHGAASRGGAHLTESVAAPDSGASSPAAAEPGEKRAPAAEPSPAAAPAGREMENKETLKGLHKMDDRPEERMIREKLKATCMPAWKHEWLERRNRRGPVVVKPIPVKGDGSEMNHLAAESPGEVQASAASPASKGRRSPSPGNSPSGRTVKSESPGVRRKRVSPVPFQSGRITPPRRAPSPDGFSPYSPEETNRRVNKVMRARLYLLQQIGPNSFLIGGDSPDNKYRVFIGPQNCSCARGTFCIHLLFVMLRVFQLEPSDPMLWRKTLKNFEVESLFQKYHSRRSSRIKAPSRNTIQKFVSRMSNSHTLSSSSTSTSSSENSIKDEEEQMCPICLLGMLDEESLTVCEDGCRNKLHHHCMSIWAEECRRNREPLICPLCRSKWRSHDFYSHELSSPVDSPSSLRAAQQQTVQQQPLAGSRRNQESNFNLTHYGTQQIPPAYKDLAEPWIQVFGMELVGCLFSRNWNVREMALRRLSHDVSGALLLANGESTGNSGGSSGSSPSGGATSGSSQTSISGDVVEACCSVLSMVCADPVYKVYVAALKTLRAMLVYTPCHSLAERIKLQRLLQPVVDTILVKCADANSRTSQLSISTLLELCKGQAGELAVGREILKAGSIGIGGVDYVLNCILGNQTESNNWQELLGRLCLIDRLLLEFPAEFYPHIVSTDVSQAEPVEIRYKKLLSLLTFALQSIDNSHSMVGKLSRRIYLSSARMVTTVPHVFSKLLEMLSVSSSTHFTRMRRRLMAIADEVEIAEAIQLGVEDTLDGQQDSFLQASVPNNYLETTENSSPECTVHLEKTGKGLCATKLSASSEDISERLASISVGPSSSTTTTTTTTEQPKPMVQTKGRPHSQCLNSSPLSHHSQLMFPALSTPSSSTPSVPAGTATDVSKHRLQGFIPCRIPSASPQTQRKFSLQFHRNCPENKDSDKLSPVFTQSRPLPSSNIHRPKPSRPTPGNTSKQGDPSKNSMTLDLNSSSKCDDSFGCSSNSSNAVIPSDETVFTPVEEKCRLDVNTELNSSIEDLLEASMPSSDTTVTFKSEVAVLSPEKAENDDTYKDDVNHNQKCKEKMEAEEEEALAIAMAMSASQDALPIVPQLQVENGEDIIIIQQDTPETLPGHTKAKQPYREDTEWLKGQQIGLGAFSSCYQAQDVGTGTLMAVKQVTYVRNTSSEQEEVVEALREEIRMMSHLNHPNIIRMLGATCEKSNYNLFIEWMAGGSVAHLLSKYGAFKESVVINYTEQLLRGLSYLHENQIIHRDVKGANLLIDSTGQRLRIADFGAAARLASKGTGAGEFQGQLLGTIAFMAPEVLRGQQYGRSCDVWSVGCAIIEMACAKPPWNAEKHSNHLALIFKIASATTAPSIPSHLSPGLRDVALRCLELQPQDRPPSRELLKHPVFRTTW

[8] = molecular target: RIPK2 (human) (UniProt O43353)
Chain of RIPK2 (human) (O43353 whole entry, looked up): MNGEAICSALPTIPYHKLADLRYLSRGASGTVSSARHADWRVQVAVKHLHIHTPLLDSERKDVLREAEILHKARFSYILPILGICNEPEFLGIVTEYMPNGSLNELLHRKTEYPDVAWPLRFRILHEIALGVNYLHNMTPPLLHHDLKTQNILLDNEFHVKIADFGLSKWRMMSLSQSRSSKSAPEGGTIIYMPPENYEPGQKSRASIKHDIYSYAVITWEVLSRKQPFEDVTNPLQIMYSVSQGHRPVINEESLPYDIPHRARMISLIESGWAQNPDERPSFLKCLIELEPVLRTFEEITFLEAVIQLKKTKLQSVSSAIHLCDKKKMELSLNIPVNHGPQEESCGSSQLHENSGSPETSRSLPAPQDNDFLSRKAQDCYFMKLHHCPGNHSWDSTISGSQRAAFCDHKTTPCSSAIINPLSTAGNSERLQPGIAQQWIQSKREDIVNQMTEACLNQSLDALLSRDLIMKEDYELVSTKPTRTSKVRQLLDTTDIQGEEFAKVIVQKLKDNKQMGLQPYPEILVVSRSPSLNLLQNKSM

[9] = molecular target: CDK4 CCND1 (human) (UniProt P11802+P24385); conditions: compound 1.0 µM
[10] = molecular target: RPS6KA6 KD2 (human) (UniProt Q9UK32)
[11] = molecular target: RET (human) (UniProt P07949)
[12] = molecular target: PKN3 (M.tuberculosis) (UniProt Q6P5Z2); conditions: compound 1.0 µM
Chain of PKN3 (M.tuberculosis) (Q6P5Z2 whole entry, looked up): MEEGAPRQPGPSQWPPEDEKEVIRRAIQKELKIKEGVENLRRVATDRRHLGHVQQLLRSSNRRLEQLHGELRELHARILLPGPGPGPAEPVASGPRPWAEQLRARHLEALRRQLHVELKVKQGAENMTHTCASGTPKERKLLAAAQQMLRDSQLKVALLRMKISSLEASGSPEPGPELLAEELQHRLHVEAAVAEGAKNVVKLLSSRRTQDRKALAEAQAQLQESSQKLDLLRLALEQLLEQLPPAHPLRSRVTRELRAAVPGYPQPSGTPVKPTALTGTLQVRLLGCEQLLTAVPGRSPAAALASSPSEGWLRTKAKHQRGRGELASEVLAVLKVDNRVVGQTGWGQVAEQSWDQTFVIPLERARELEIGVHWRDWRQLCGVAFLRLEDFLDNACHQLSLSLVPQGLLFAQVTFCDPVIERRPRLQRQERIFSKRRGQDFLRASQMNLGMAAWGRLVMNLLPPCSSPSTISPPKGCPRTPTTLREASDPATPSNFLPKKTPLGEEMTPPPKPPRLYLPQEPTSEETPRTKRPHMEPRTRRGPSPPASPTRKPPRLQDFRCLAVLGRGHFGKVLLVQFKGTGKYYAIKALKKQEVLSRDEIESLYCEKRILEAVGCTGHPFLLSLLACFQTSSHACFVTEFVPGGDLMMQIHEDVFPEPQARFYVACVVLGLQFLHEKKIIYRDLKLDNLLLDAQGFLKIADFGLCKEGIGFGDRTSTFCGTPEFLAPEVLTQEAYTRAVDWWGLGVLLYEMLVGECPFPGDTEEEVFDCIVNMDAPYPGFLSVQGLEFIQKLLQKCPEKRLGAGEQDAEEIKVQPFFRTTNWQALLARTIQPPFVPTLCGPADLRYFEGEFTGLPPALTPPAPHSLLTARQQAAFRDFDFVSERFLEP

Chain of PDGFRB (human) (P09619 whole entry, looked up): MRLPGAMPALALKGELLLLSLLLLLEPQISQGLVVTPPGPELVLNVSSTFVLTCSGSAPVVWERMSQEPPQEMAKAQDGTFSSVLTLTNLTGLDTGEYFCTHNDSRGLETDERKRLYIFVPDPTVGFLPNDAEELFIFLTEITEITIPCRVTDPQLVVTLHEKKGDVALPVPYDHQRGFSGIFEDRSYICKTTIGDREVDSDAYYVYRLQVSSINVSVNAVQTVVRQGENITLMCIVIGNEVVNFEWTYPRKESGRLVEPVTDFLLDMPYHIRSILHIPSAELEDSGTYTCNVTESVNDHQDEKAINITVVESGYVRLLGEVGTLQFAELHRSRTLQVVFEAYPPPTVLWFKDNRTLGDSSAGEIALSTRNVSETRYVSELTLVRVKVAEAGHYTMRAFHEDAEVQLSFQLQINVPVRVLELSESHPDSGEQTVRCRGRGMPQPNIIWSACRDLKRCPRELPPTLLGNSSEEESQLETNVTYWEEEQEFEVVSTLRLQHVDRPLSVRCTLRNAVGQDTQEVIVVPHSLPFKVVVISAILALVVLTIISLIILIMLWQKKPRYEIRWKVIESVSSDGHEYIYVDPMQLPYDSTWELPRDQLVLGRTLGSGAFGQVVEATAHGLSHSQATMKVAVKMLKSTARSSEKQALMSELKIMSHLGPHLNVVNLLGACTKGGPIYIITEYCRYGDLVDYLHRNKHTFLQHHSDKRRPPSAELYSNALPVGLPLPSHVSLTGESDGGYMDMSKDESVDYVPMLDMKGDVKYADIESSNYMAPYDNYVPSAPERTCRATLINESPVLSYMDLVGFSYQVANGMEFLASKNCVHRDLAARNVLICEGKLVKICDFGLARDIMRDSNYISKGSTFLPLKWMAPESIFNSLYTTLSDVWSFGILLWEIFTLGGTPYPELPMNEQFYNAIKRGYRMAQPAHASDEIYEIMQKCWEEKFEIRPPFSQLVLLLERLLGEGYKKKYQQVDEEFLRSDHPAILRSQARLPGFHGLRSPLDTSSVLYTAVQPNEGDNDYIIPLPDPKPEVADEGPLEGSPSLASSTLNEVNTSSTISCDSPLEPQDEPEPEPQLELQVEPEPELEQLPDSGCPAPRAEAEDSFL
Chain of MAP2K5 (human) (Q13163 whole entry, looked up): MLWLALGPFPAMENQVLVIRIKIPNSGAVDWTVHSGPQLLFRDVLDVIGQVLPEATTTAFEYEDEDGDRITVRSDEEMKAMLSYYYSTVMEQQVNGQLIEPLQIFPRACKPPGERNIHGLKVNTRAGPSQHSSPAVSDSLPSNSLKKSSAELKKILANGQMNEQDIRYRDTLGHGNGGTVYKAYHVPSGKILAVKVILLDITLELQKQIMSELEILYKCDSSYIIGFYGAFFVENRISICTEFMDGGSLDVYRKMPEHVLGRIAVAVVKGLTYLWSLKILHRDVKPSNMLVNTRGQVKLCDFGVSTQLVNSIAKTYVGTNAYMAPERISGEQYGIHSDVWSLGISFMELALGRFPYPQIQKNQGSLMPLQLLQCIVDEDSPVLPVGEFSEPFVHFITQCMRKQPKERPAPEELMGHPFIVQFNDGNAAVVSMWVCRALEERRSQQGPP
Chain of STK16 (human) (O75716 whole entry, looked up): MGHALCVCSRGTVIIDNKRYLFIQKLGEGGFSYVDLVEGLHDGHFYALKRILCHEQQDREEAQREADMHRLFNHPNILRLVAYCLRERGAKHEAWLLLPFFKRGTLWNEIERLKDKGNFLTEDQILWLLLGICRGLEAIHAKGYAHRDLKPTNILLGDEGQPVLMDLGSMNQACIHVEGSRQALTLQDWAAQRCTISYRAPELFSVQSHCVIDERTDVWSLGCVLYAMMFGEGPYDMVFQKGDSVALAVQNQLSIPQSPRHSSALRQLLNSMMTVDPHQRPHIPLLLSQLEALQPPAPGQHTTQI

Cc1ccc(-c2c(/C=C(\C#N)C(=O)NC(C)C)n(CCCO)c3ncnc(N)c23)cc1
kinase still bound, per cent of control [1]: 75%
Kd [2]: 230 nM
Kd [3]: 2300 nM
Kd [4]: 2800 nM
residual activity [5]: 95%
kinase still bound, per cent of control [6]: 68%
Kd [7]: 45 nM
Kd [8]: 310 nM
residual activity [9]: 100%
Kd [10]: 1.2 nM
Kd [11]: 360 nM
kinase still bound, per cent of control [12]: 100%
